Our source for the IC50 values is patent US20240218022A1, “ANTI-VISTA MACROCYCLIC PEPTIDES AND COMPOSITIONS” (BRISTOL-MYERS SQUIBB COMPANY, priority 2022, published 2024).

The IC50 is the concentration needed to halve the response being measured.

The test has as its target T1, mouse VISTA (mVISTA) (Mus musculus, UniProt Q9D659).
T1 construct: expressed in transfected cells; host or cells: Human embryonic kidney 293T cells
T1 sequence (Q9D659 33-308): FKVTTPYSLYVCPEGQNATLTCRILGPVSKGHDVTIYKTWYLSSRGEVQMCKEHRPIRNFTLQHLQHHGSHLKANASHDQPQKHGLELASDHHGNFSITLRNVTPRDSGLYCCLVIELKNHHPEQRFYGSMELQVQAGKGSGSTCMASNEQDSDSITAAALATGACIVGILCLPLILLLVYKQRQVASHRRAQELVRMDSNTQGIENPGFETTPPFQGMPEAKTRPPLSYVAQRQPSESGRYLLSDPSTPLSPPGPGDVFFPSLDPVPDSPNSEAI
The test is described as follows: Cell-Based Binding High-Content Assay For mVISTA (HC CBA mVISTA). The settings on record: read-out: HC CBA mVISTA IC50. The procedure, abridged:
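This high-content binding assay uses HEK293T cells expressing murine VISTA, measuring displacement of 2 nM biotinylated peptide by fluorescent streptavidin imaging. IC50 values come from four-parameter logistic fitting.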

Like-named read-outs stand apart in the source and are kept apart here. Positions of bridges follow the written chain, without caps; N, C: chain ends. Non-standard residues stand in square brackets, D forms with d. Residues, ends and D or L forms follow the SMILES beside them. 2Nal = N[C@@H](Cc1ccc2ccccc2c1)C(=O)O; Ahp(2) = CCCCC[C@H](N)C(=O)O; NMeNle = CCCC[C@H](NC)C(=O)O; NHexGly = CCCCCCNCC(=O)O; Nle = CCCC[C@H](N)C(=O)O; Orn = NCCC[C@H](N)C(=O)O; Aun = NCCCCCCCCCCC(=O)O; Dab = NCC[C@H](N)C(=O)O; Nva = CCC[C@H](N)C(=O)O; Abu = CC[C@H](N)C(=O)O; Dap = NC[C@H](N)C(=O)O

For `CCCCCCN1CC(=O)N[C@@H](Cc2ccc(O)cc2)C(=O)N[C@@H](CCCCC)C(=O)N[C@@H](CC(N)=O)C(=O)N[C@@H](CCCNC(=N)N)C(=O)N[C@@H](CC(C)C)C(=O)N[C@@H](CCCCC)C(=O)N2CCC[C@H]2C(=O)N[C@@H](C(C)C)C(=O)N[C@@H](CO)C(=O)N[C@H](C(=O)NCC(=O)N[C@@H](CCC(=O)O)C(=O)NCCCCCCCCCCC(=O)O)CSCC(=O)N[C@@H](Cc2ccccc2)C(=O)N[C@@H](Cc2ccc(O)cc2)C(=O)N[C@@H](CC(=O)O)C1=O` [Example 2341] ({CH2CO}-FYD[NHexGly]Y[Ahp(2)]NRL[Ahp(2)]PVSCGE[Aun]-OH; thioether N-14), under “293T cells expressing mouse VISTA, competition with biotinylated peptide (2 nM)”, the IC50 worked out at 0.058 µM. In the case of `CCCCCCN1CC(=O)N[C@@H](Cc2ccc(O)cc2)C(=O)N[C@@H](CCCC)C(=O)N[C@@H](CC(=O)O)C(=O)N[C@@H](CCCNC(=N)N)C(=O)N[C@@H](CC(C)C)C(=O)N[C@@H](CCCCC)C(=O)N2CCC[C@H]2C(=O)N[C@@H](C(C)C)C(=O)N2CCC[C@H]2C(=O)N[C@H](C(=O)NCC(=O)O)CSCC(=O)N[C@@H](Cc2ccccc2)C(=O)N[C@@H](Cc2ccc(O)cc2)C(=O)N[C@@H](CC(=O)O)C1=O` [compound 1118] ({CH2CO}-FYD[NHexGly]Y[Nle]DRL[Ahp(2)]PVPCG-OH; thioether N-14), the IC50 is 0.0299 µM. For `CCCCCCN1CC(=O)N[C@@H](Cc2ccc(O)cc2)C(=O)N[C@@H](CCC)C(=O)N[C@@H](CC(N)=O)C(=O)N[C@@H](CCCNC(=N)N)C(=O)N[C@@H](CC(C)C)C(=O)N[C@@H](CCCCC)C(=O)N2CCC[C@H]2C(=O)N[C@@H](C(C)C)C(=O)N2CCC[C@H]2C(=O)N[C@H](C(=O)NCC(=O)O)CSCC(=O)N[C@@H](Cc2ccccc2)C(=O)N[C@@H](Cc2ccc(O)cc2)C(=O)N[C@@H](CC(=O)O)C1=O` [compound 1120] ({CH2CO}-FYD[NHexGly]Y[Nva]NRL[Ahp(2)]PVPCG-OH; thioether N-14), the IC50 came out at 0.0026 µM.

In the case of `CCCCCCN1CC(=O)N[C@@H](Cc2ccc(O)cc2)C(=O)N[C@@H](CCCC)C(=O)N[C@@H](CC(N)=O)C(=O)N[C@@H](CCCNC(=N)N)C(=O)N[C@@H](CC(C)C)C(=O)N[C@@H](CCCCC)C(=O)N2CCC[C@H]2C(=O)N[C@@H](C(C)C)C(=O)N2CCC[C@H]2C(=O)N[C@H](C(=O)NCC(=O)O)CSCC(=O)N[C@@H](Cc2ccccc2)C(=O)N[C@@H](Cc2ccc(O)cc2)C(=O)N[C@@H](CC(=O)O)C1=O` [compound 1121] ({CH2CO}-FYD[NHexGly]Y[Nle]NRL[Ahp(2)]PVPCG-OH; thioether N-14), the half-maximal inhibitory concentration (IC50) turned out to be 0.0324 µM. The same measure, in the same setting: as for `CCCCCCN1CC(=O)N[C@@H](Cc2ccc(O)cc2)C(=O)N[C@@H](C(C)C)C(=O)N[C@@H](CC(N)=O)C(=O)N[C@@H](CCCNC(=N)N)C(=O)N[C@@H](CC(C)C)C(=O)N[C@@H](CCCCC)C(=O)N2CCC[C@H]2C(=O)N[C@@H](C(C)C)C(=O)N2CCC[C@H]2C(=O)N[C@H](C(=O)NCC(=O)O)CSCC(=O)N[C@@H](Cc2ccccc2)C(=O)N[C@@H](Cc2ccc(O)cc2)C(=O)N[C@@H](CC(=O)O)C1=O` [compound 1122] ({CH2CO}-FYD[NHexGly]YVNRL[Ahp(2)]PVPCG-OH; thioether N-14), the figure is 0.0376 µM. On the same count and under the same terms, the figure for `CCCCCCN1CC(=O)N[C@@H](Cc2ccc(O)cc2)C(=O)N[C@@H](CC)C(=O)NCC(=O)N[C@@H](CCCNC(=N)N)C(=O)N[C@@H](CC(C)C)C(=O)N[C@@H](CCCCC)C(=O)N2CCC[C@H]2C(=O)N[C@@H](C(C)C)C(=O)N2CCC[C@H]2C(=O)N[C@H](C(=O)NCC(=O)O)CSCC(=O)N[C@@H](Cc2ccccc2)C(=O)N[C@@H](Cc2ccc(O)cc2)C(=O)N[C@@H](CC(=O)O)C1=O` [compound 1123] ({CH2CO}-FYD[NHexGly]Y[Abu]GRL[Ahp(2)]PVPCG-OH; thioether N-14) is 0.0254 µM.

Regarding `CCCCCCN1CC(=O)N[C@@H](Cc2ccc(O)cc2)C(=O)N[C@@H](CC(C)C)C(=O)NCC(=O)N[C@@H](CCCNC(=N)N)C(=O)N[C@@H](CC(C)C)C(=O)N[C@@H](CCCCC)C(=O)N2CCC[C@H]2C(=O)N[C@@H](C(C)C)C(=O)N2CCC[C@H]2C(=O)N[C@H](C(=O)NCC(=O)O)CSCC(=O)N[C@@H](Cc2ccccc2)C(=O)N[C@@H](Cc2ccc(O)cc2)C(=O)N[C@@H](CC(=O)O)C1=O` [compound 1124] ({CH2CO}-FYD[NHexGly]YLGRL[Ahp(2)]PVPCG-OH; thioether N-14), the half-inhibitory concentration (IC50) amounted to 0.0323 µM.

Turning to `CCCCCCN1CC(=O)N[C@@H](Cc2ccc(O)cc2)C(=O)N[C@@H](CC(C)C)C(=O)NCC(=O)N[C@@H](CCCNC(=N)N)C(=O)N[C@@H](CC(C)C)C(=O)N[C@@H](CCCCC)C(=O)N2CCC[C@H]2C(=O)N[C@@H](C(C)C)C(=O)N2CCC[C@H]2C(=O)N[C@H](C(=O)NCC(N)=O)CSCC(=O)N[C@@H](Cc2ccccc2)C(=O)N[C@@H](Cc2ccc(O)cc2)C(=O)N[C@@H](CC(=O)O)C1=O` [compound 1125] ({CH2CO}-FYD[NHexGly]YLGRL[Ahp(2)]PVPCG-NH2; thioether N-14), the 50% inhibitory concentration (IC50) turned out to be 0.0335 µM.

For `CCCCCCN1CC(=O)N[C@@H](Cc2ccc(O)cc2)C(=O)N[C@@H](CCCC)C(=O)N[C@@H](CC(N)=O)C(=O)N[C@@H](CCCNC(=N)N)C(=O)N(C)[C@@H](CCCC)C(=O)N[C@@H](CCCCC)C(=O)N2CCC[C@H]2C(=O)N[C@@H](C(C)C)C(=O)N[C@@H](CC(=O)O)C(=O)N[C@H](C(=O)N[C@@H](CCCCN)C(=O)N[C@@H](CC(N)=O)C(=O)O)CSCC(=O)N[C@@H](Cc2ccccc2)C(=O)N[C@@H](Cc2c[nH]c3ccccc23)C(=O)N[C@@H](CC(=O)O)C1=O` [compound 1128] ({CH2CO}-FWD[NHexGly]Y[Nle]NR[NMeNle][Ahp(2)]PVDCKN-OH; thioether N-14), the concentration for half-maximal inhibition (IC50) turned out to be 0.0157 µM.

Take `CCCCCCN1CC(=O)N[C@@H](Cc2ccc(O)cc2)C(=O)N[C@@H](CCCC)C(=O)N[C@@H](CC(N)=O)C(=O)N[C@@H](CCCNC(=N)N)C(=O)N(C)[C@@H](CCCC)C(=O)N[C@@H](CCCCC)C(=O)N2CCC[C@H]2C(=O)N[C@@H](C(C)C)C(=O)N[C@@H](CC(=O)O)C(=O)N[C@H](C(=O)N[C@@H](CCCN)C(=O)N[C@@H](CC(N)=O)C(=O)O)CSCC(=O)N[C@@H](Cc2ccccc2)C(=O)N[C@@H](Cc2c[nH]c3ccccc23)C(=O)N[C@@H](CC(=O)O)C1=O` [compound 1129] ({CH2CO}-FWD[NHexGly]Y[Nle]NR[NMeNle][Ahp(2)]PVDC[Orn]N-OH; thioether N-14): the IC50 was 0.0134 µM.

Take `CCCCCCN1CC(=O)N[C@@H](Cc2ccc(O)cc2)C(=O)N[C@@H](CCCC)C(=O)N[C@@H](CC(N)=O)C(=O)N[C@@H](CCCNC(=N)N)C(=O)N(C)[C@@H](CCCC)C(=O)N[C@@H](CCCCC)C(=O)N2CCC[C@H]2C(=O)N[C@@H](C(C)C)C(=O)N[C@@H](CC(=O)O)C(=O)N[C@H](C(=O)N[C@@H](CCCN)C(=O)N[C@@H](CCC(N)=O)C(=O)O)CSCC(=O)N[C@@H](Cc2ccccc2)C(=O)N[C@@H](Cc2c[nH]c3ccccc23)C(=O)N[C@@H](CC(=O)O)C1=O` [compound 1130] ({CH2CO}-FWD[NHexGly]Y[Nle]NR[NMeNle][Ahp(2)]PVDC[Orn]Q-OH; thioether N-14): the IC50 stood at 0.0175 µM.

With `CCCCCCN1CC(=O)N[C@@H](Cc2ccc(O)cc2)C(=O)N[C@@H](CCCC)C(=O)N[C@@H](CC(N)=O)C(=O)N[C@@H](CCCNC(=N)N)C(=O)N(C)[C@@H](CCCC)C(=O)N[C@@H](CCCCC)C(=O)N2CCC[C@H]2C(=O)N[C@@H](C(C)C)C(=O)N[C@@H](CC(=O)O)C(=O)N[C@H](C(=O)N[C@@H](CCN)C(=O)N[C@@H](CC(N)=O)C(=O)O)CSCC(=O)N[C@@H](Cc2ccccc2)C(=O)N[C@@H](Cc2c[nH]c3ccccc23)C(=O)N[C@@H](CC(=O)O)C1=O` [compound 1131] ({CH2CO}-FWD[NHexGly]Y[Nle]NR[NMeNle][Ahp(2)]PVDC[Dab]N-OH; thioether N-14), the half-maximal inhibitory concentration (IC50) worked out at 0.0231 µM. Same read-out and setting: as for `CCCCCCN1CC(=O)N[C@@H](Cc2ccc(O)cc2)C(=O)N[C@@H](CCCC)C(=O)N[C@@H](CC(N)=O)C(=O)N[C@@H](CCCNC(=N)N)C(=O)N(C)[C@@H](CCCC)C(=O)N[C@@H](CCCCC)C(=O)N2CCC[C@H]2C(=O)N[C@@H](C(C)C)C(=O)N[C@@H](CC(=O)O)C(=O)N[C@H](C(=O)N[C@@H](CCN)C(=O)N[C@@H](CCC(N)=O)C(=O)O)CSCC(=O)N[C@@H](Cc2ccccc2)C(=O)N[C@@H](Cc2c[nH]c3ccccc23)C(=O)N[C@@H](CC(=O)O)C1=O` [compound 1132] ({CH2CO}-FWD[NHexGly]Y[Nle]NR[NMeNle][Ahp(2)]PVDC[Dab]Q-OH; thioether N-14), the figure is 0.036 µM; as for `CCCCCCN1CC(=O)N[C@@H](Cc2ccc(O)cc2)C(=O)N[C@@H](CCCC)C(=O)N[C@@H](CC(N)=O)C(=O)N[C@@H](CCCNC(=N)N)C(=O)N(C)[C@@H](CCCC)C(=O)N[C@@H](CCCCC)C(=O)N2CCC[C@H]2C(=O)N[C@@H](C(C)C)C(=O)N[C@@H](CC(=O)O)C(=O)N[C@H](C(=O)N[C@@H](CN)C(=O)N[C@@H](CC(N)=O)C(=O)O)CSCC(=O)N[C@@H](Cc2ccccc2)C(=O)N[C@@H](Cc2c[nH]c3ccccc23)C(=O)N[C@@H](CC(=O)O)C1=O` [compound 1133] ({CH2CO}-FWD[NHexGly]Y[Nle]NR[NMeNle][Ahp(2)]PVDC[Dap]N-OH; thioether N-14), 0.0115 µM; as for `CCCCCCN1CC(=O)N[C@@H](Cc2ccc(O)cc2)C(=O)N[C@@H](CCCC)C(=O)N[C@@H](CC(N)=O)C(=O)N[C@@H](CCCNC(=N)N)C(=O)N(C)[C@@H](CCCC)C(=O)N[C@@H](CCCCC)C(=O)N2CCC[C@H]2C(=O)N[C@@H](C(C)C)C(=O)N[C@@H](CC(=O)O)C(=O)N[C@H](C(=O)N[C@@H](CCN)C(=O)N[C@@H](CCC(N)=O)C(=O)O)CSCC(=O)N[C@@H](Cc2ccc3ccccc3c2)C(=O)N[C@@H](Cc2c[nH]c3ccccc23)C(=O)N[C@@H](CC(=O)O)C1=O` [compound 1134] ({CH2CO}-[2Nal]WD[NHexGly]Y[Nle]NR[NMeNle][Ahp(2)]PVDC[Dab]Q-OH; thioether N-14), 0.0137 µM.
